Data on 15 molecules can be found in ChEMBL document CHEMBL5143581, “Design, synthesis and molecular docking studies of imidazole and benzimidazole linked ethionamide derivatives as inhibitors of InhA and antituberculosis agents” (Bioorg Med Chem Lett, 2022).

Values after ≈ are worked out from the molar mass of the structure shown.

Series [1] relates to Mycobacterium tuberculosis. Kind of series: Antimycobacterial activity against Mycobacterium tuberculosis H37Rv. It is filed as functional.
The test system of series [2] is Vero. As to the kind of experiment: Cytotoxicity in African green monkey Vero cells assessed as reduction in cell viability. It is filed as toxicity, cell-based. The following applies: chlorocebus sabaeus.

Usually MIC stands for the least concentration at which growth counts as inhibited.

The molecule `Cn1ccnc1NC(=O)c1cc(C(N)=S)ccn1` registered an MIC in series [1] of 15.1 µM (≈ 3.95 µg/mL). In addition, in series [2], the Activity was greater than 100 µM.
The corresponding values for `Cc1ccc2c(c1)nc(NC(=O)c1cc(C(N)=S)ccn1)n2C` are 3.14 µM (≈ 1.02 µg/mL) and greater than 100 µM.
On to `COc1ccc2c(c1)nc(NC(=O)c1cc(C(N)=S)ccn1)n2C`, for which the minimum inhibitory concentration (MIC) in series [1] was determined as 0.35 µM (≈ 0.119 µg/mL). Also, the Activity in series [2] is greater than 100 µM.
The corresponding values for `Cc1cn(C)c(NC(=O)c2cc(C(N)=S)ccn2)n1` are 13.6 µM (≈ 3.75 µg/mL) and greater than 100 µM.
In series [1], `Cn1c(NC(=O)c2cc(C(N)=S)ccn2)nc2cc(O)ccc21` showed an MIC of 0.27 µM (≈ 0.0884 µg/mL). In addition, in series [2], the Activity is greater than 100 µM.
The corresponding values for `Cn1cc(O)nc1NC(=O)c1cc(C(N)=S)ccn1` are 0.97 µM (≈ 0.269 µg/mL) and greater than 100 µM.
The matching figures for `NC(=S)c1ccnc(C(=O)Nc2nc3ccccc3[nH]2)c1`: 12.6 µM (≈ 3.73 µg/mL) and greater than 100 µM.
The corresponding values for `Cn1c(NC(=O)c2cc(C(N)=S)ccn2)nc2ccccc21` are 6.52 µM (≈ 2.03 µg/mL) and greater than 100 µM.
As to `NC(=S)c1ccnc(C(=O)Nc2ncc[nH]2)c1`, the lowest concentration to inhibit growth in series [1] (MIC) was 23.8 µM (≈ 5.9 µg/mL). Also, the Activity in series [2] was greater than 100 µM.
The corresponding values for `Cn1cc(C#N)nc1NC(=O)c1cc(C(N)=S)ccn1` are 1.24 µM (≈ 0.355 µg/mL) and greater than 100 µM.
In turn, `O=C(O)c1cn(C2CC2)c2cc(N3CCNCC3)c(F)cc2c1=O` [CIPROFLOXACIN] gave an MIC in series [1] of 4.73 µM (≈ 1.57 µg/mL). The Activity in series [2] was greater than 100 µM.
The molecule `CC[C@@H](CO)NCCN[C@@H](CC)CO` [ETHAMBUTOL] yielded an MIC in series [1] of 5.01 µM (≈ 1.02 µg/mL). In addition, the Activity in series [2] is greater than 100 µM.
The corresponding values for `CCc1cc(C(N)=S)ccn1` [ETHIONAMIDE] are 6.63 µM (≈ 1.1 µg/mL) and greater than 100 µM.
The matching figures for `NNC(=O)c1ccncc1` [ISONIAZID]: 0.36 µM (≈ 0.0494 µg/mL) and greater than 100 µM.
The matching figures for `NC(=O)c1cnccn1` [PYRAZINAMIDE]: 3.12 µM (≈ 0.384 µg/mL) and greater than 100 µM.
